Molecules are shown by their SMILES.

Common to all, as to format: cell-based
Test [1] relates to Hedgehog (Hh) signaling pathway. The test is described as follows: Dual-luciferase reporter assay of Hedgehog activity in Light II cells. As to conditions: SAG stimulation, 36 h, dual-luciferase assay reporter kit, read-out: IC50 (nM) in Light II cells (inhibiting Hedgehog activity). As to the method: Determination of the IC50 Values of Compounds Inhibiting Hedgehog Activity—Dual-Luciferase Reporter Assay:
Light II cells were NIH3T3 cell lines that stably express the Gli-luciferase and TK-renilla reporters. They were cultured with DMEM medium containing 10% (v/v) fetal bovine serum (FBS), 0.4 mg/ml G418, 0.15 mg/ml bleomycin (Zeocin), and penicillin/streptomycin at 37° C. in an incubator with 5% CO2. Light II cells in the logarithmic growth phase were seeded at a density of 2.5×10^4 cells/well in a 96-well plate. After 24h incubation, the cells were subjected to treatment with SAG with or without different concentrations of the compounds of the present disclosure for 36 h. After that, the Hedgehog activity was measured using the dual fluorescence reporter kit according to its instructions. The experiment had 3 replicates per group and was repeated at least three times.

The subject of test [2] is Molt-4 cells. Briefly: Thiazolyl blue cell proliferation assay in Molt-4 cells. As to conditions: Homo sapiens, Molt-4 acute lymphocytic leukemia cells, 72 hours, read-out: IC50 (nM) for inhibiting the proliferation of Molt-4 cells. The source says:
(§1) The cell lines RS4;11 (human acute lymphocytic leukemia cells), Molt-4 cells (human acute lymphocytic leukemia cells), MV4;11 (human myeloid monocytic leukemia cells), and Light II cells were commercially available or purchased from ATCC (American Type Culture Collection) and routinely cultured according to instructions.
3) Study on the proliferation inhibition effects induced by the compounds of the present disclosure designed based on ABT199/263 against BCL-XL-dependent Molt-4 cells:
(§2) The specific steps were as follows: Molt-4 cells were seeded at a density of 2×10^4 cells/well in 180 μL of serum-containing RPMI 1640 culture medium. DT2216 and the compounds of the present disclosure were added to the cell suspension at corresponding concentration gradients. DT2216 and DMSO were used as positive and vehicle control, respectively. The positive control and negative control were treated with the same treatment method as the compounds of the present disclosure. After treating the cells with the compounds of the present disclosure for 72 hours, thiazole blue solution (5 mg/mL) was added at 20 μL/well to the cell suspension, followed by incubation for 3 hours at 37° C. in an incubator with 5% CO2. Then, triple solution (0.1 g/mL SDS, 5% isopropyl alcohol, 10 mM hydrochloric acid) was added, followed by incubation for 4-6 hours at 37° C. in an incubator with 5% CO2. After confirming that all the crystal violets were dissolved under inverted biological microscopy, the absorbance was measured at 490 nm using an Epoch microplate reader (Biotek Corporation). The growth inhibition of the compounds of the present disclosure on the cells was plotted by GraphPad Prism 8 software, and the IC50 values of the compounds of the present disclosure were calculated therefrom. The experiment had 3 replicates per group and was repeated at least three times.

Test [3] has as its system RS4;11 cells. Briefly: Thiazolyl blue cell proliferation assay in RS4;11 cells. As to conditions: Homo sapiens, RS4;11 acute lymphoblastic leukemia cells, 48 hours, read-out: IC50 (nM) for inhibiting the proliferation of RS4;11 cells.
From the text: as §1
1) Study on the proliferation inhibition effects induced by the compounds of the present disclosure designed based on ABT199/263 against BCL-XL-dependent RS4;11 cells:
as §2, with “RS4;11” for “Molt-4”, “3×10^4” for “2×10^4”, “90” for “180”, “RPMI-1640” for “RPMI 1640”, “48” for “72”, “10” for “20”
We conducted dose-dependent experiments on the designed and synthesized compounds of the present disclosure in RS4;11 cells, which are highly sensitive to BCL-XL inhibitors. The cells were treated with 7 different concentrations (starting at the highest concentration of 1000 nM or 100 nM; 10-fold serial dilutions) of the compounds for 48 hours, and then tested using the thiazolyl blue cell proliferation assay.

In test [4] the test system is MV4;11 cells. Briefly: Thiazolyl blue cell proliferation assay in MV4;11 cells. Particulars: Homo sapiens, MV4;11 myeloid monocytic leukemia cells, 48 hours, read-out: IC50 (nM) for inhibiting the proliferation of MV4;11 cells.
From the text: as §1
2) Study on the proliferation inhibition effects induced by the compounds of the present disclosure designed based on ABT199/263 against BCL-XL-dependent MV4;11 cells:
as §2, with “MV4;11” for “Molt-4”, “90” for “180”, “IMDM” for “RPMI 1640”, “48” for “72”, “10 µL/well” for “20 μL/well”

As to `C[C@H]1CN([C@H]2CC[C@@H](CNc3ccc(S(=O)(=O)NC(=O)c4ccc(N5CCN(CC6=C(c7ccc(Cl)cc7)CC(C)(C)CC6)CC5)cc4Oc4cnc5[nH]ccc5c4)cc3[N+](=O)[O-])CC2)CCN1Cc1ccc2c(c1)CN(C1CCC(=O)NC1=O)C2=O` (stereo partly drawn) [BCL-03165, 2-((1H-pyrrolo[2,3-b]pyridin-5-yl)oxy)-4-(4-((4′-chloro-5,5-dimethyl-3,4,5,6-tetrahydro-[1,1′-biphenyl]-2-yl)methyl)piperazin-1-yl)-N-((4-((((cis)-4-((3S)-4-((2-(2,6-dioxopiperidin-3-yl)-1-oxoisoindolin-5-yl)methyl)-3-methylpiperazin-1-yl)cyclohexyl)methyl)amino)-3-nitrophenyl)sulfonyl)benzamide], the IC50 in test [1] was less than 10 nM; in test [2], less than 10 nM; in test [3], less than 20 nM; in test [4] it was less than 20 nM.
Take `C[C@H]1CN([C@H]2CC[C@H](CNc3ccc(S(=O)(=O)NC(=O)c4ccc(N5CCN(CC6=C(c7ccc(Cl)cc7)CC(C)(C)CC6)CC5)cc4Oc4cnc5[nH]ccc5c4)cc3[N+](=O)[O-])CC2)CCN1Cc1ccc2c(c1)CN(C1CCC(=O)NC1=O)C2=O` (stereo partly drawn) [BCL-03166, 2-((1H-pyrrolo[2,3-b]pyridin-5-yl)oxy)-4-(4-((4′-chloro-5,5-dimethyl-3,4,5,6-tetrahydro-[1,1′-biphenyl]-2-yl)methyl)piperazin-1-yl)-N-((4-((((trans)-4-((3S)-4-((2-(2,6-dioxopiperidin-3-yl)-1-oxoisoindolin-5-yl)methyl)-3-methylpiperazin-1-yl)cyclohexyl)methyl)amino)-3-nitrophenyl)sulfonyl)benzamide]: the IC50 in test [1] is less than 10 nM; in test [2] it was less than 10 nM; in test [3], less than 20 nM; in test [4], less than 20 nM.
Turning to `C[C@@H]1CN([C@H]2CC[C@@H](CNc3ccc(S(=O)(=O)NC(=O)c4ccc(N5CCN(CC6=C(c7ccc(Cl)cc7)CC(C)(C)CC6)CC5)cc4Oc4cnc5[nH]ccc5c4)cc3[N+](=O)[O-])CC2)CCN1Cc1ccc2c(c1)CN(C1CCC(=O)NC1=O)C2=O` (stereo partly drawn) [BCL-03167, 2-((1H-pyrrolo[2,3-b]pyridin-5-yl)oxy)-4-(4-((4′-chloro-5,5-dimethyl-3,4,5,6-tetrahydro-[1,1′-biphenyl]-2-yl)methyl)piperazin-1-yl)-N-((4-((((cis)-4-((3R)-4-((2-(2,6-dioxopiperidin-3-yl)-1-oxoisoindolin-5-yl)methyl)-3-methylpiperazin-1-yl)cyclohexyl)methyl)amino)-3-nitrophenyl)sulfonyl)benzamide], the IC50 in test [1] was less than 10 nM; in test [2], less than 10 nM; in test [3], less than 20 nM; in test [4], less than 20 nM.
Take `CC1(C)CCC(CN2CCN(c3ccc(C(=O)NS(=O)(=O)c4ccc(NC[C@H]5CC[C@H](N6CCN(Cc7cc(Br)c8c(c7)C(=O)N(C7CCC(=O)NC7=O)C8)CC6)CC5)c(S(=O)(=O)C(F)(F)F)c4)c(Oc4cnc5[nH]ccc5c4)c3)CC2)=C(c2ccc(Cl)cc2)C1` (stereo partly drawn) [BCL-03182, 2-((1H-pyrrolo[2,3-b]pyridin-5-yl)oxy)-N-((4-((((trans)-4-(4-((7-bromo-2-(2,6-dioxopiperidin-3-yl)-3-oxoisoindolin-5-yl)methyl)piperazin-1-yl)cyclohexyl)methyl)amino)-3-((trifluoromethyl)sulfonyl)phenyl)sulfonyl)-4-(4-((4′-chloro-5,5-dimethyl-3,4,5,6-tetrahydro-[1,1′-biphenyl]-2-yl)methyl)piperazin-1-yl)benzamide]: the IC50 in test [2] is less than 10 nM; in test [3], less than 20 nM; in test [4] it was less than 20 nM.
Consider `CC1(C)CCC(CN2CCN(c3ccc(C(=O)NS(=O)(=O)c4ccc(NC[C@H]5CC[C@H](N6CCN(Cc7ccc8c(c7)C(=O)N(C7CCC(=O)NC7=O)C8=O)CC6)CC5)c(S(=O)(=O)C(F)(F)F)c4)c(Oc4cnc5[nH]ccc5c4)c3)CC2)=C(c2ccc(Cl)cc2)C1` (stereo partly drawn) [BCL-03185, 2-((1H-pyrrolo[2,3-b]pyridin-5-yl)oxy)-4-(4-((4′-chloro-5,5-dimethyl-3,4,5,6-tetrahydro-[1,1′-biphenyl]-2-yl)methyl)piperazin-1-yl)-N-((4-((((trans)-4-(4-((2-(2,6-dioxopiperidin-3-yl)-1,3-dioxoisoindolin-5-yl)methyl)piperazin-1-yl)cyclohexyl)methyl)amino)-3-((trifluoromethyl)sulfonyl)phenyl)sulfonyl)benzamide], for which the IC50 in test [2] was less than 10 nM; in test [3] it was less than 20 nM; in test [4] it was less than 20 nM.
Take `C[C@H]1CN([C@H]2CC[C@@H](CNc3ccc(S(=O)(=O)NC(=O)c4ccc(N5CCN(CC6=C(c7ccc(Cl)cc7)CC(C)(C)CC6)CC5)cc4Oc4cnc5[nH]ccc5c4)cc3[N+](=O)[O-])CC2)CCN1Cc1ccc2c(c1)C(=O)N(C1CCC(=O)NC1=O)C2=O` (stereo partly drawn) [BCL-03190, 2-((1H-pyrrolo[2,3-b]pyridin-5-yl)oxy)-4-(4-((4′-chloro-5,5-dimethyl-3,4,5,6-tetrahydro-[1,1′-biphenyl]-2-yl)methyl)piperazin-1-yl)-N-((4-((((cis)-4-((3S)-4-((2-(2,6-dioxopiperidin-3-yl)-1,3-dioxoisoindolin-5-yl)methyl)-3-methylpiperazin-1-yl)cyclohexyl)methyl)amino)-3-nitrophenyl)sulfonyl)benzamide]: the IC50 in test [2] is less than 10 nM; in test [3], less than 20 nM; in test [4], less than 20 nM.
Regarding `Cc1ncsc1-c1ccc([C@H](C)NC(=O)[C@@H]2C[C@@H](O)CN2C(=O)[C@@H](NC(=O)CCCCCC(=O)N2CCN(CC[C@H](CSc3ccccc3)Nc3ccc(S(=O)(=O)NC(=O)c4ccc(N5CCN(CC6=C(c7ccc(Cl)cc7)CCC(C)(C)C6)CC5)cc4)cc3S(=O)(=O)C(F)(F)F)CC2)C(C)(C)C)cc1` [DT2216, reference compound], the IC50 worked out at 17.3 ± 9.57 nM in test [2], 81 ± 24.9 nM in test [3] and 165 ± 70.7 nM in test [4].
